Test results from ChEMBL document CHEMBL3885881, “DrugMatrix”.

Species on record: Rattus norvegicus
Assay: DrugMatrix - Regimen: Daily Repeat
Type: toxicity, organism-based, Sprague-Dawley
Set-up: regimen Daily Repeat, gender Male, age 6-8 weeks
Conditions: in vivo, po, route oral GAVAGE, vehicle 100 % WATER; for ABSOLUTE BASOPHIL / ABSOLUTE EOSINOPHIL / ABSOLUTE LYMPHOCYTE / ABSOLUTE MONOCYTE / ABSOLUTE SEGMENTED NEUTROPHIL / BASOPHIL / EOSINOPHIL / ERYTHROCYTE COUNT / HEMATOCRIT / HEMOGLOBIN / LEUKOCYTE COUNT / LYMPHOCYTE / MEAN CORPUSCULAR HEMOGLOBIN / MEAN CORPUSCULAR HEMOGLOBIN CONCENTRATION / MEAN CORPUSCULAR VOLUME / MONOCYTE / NEUTROPHIL / NUCLEATED RED BLOOD CELLS / PLATELET COUNT: tissue Blood; for ALANINE AMINOTRANSFERASE / ALBUMIN / ALKALINE PHOSPHATASE / ASPARTATE AMINOTRANSFERASE / BLOOD UREA NITROGEN / CARBON DIOXIDE / CHLORIDE / CHOLESTEROL / CREATINE PHOSPHOKINASE / CREATININE / GLUCOSE / LACTATE DEHYDROGENASE / LIPASE / PHOSPHORUS / POTASSIUM / SODIUM / TOTAL BILIRUBIN / TOTAL PROTEIN / URIC ACID: tissue Plasma
[1] = 0 mg/kg, 72 h, dose level Control, time 3 day
[2] = 0 mg/kg, 120 h, dose level Control, time 5 day
[3] = 25 mg/kg, 72 h, dose level Low, time 3 day

## c1ccc([C@H]2CN3CCSC3=N2)cc1 [LEVAMISOLE]
[1]
  ABSOLUTE BASOPHIL: 0 CELLS/uL
  ABSOLUTE EOSINOPHIL: 20.17 CELLS/uL
  ABSOLUTE LYMPHOCYTE: 12371.67 CELLS/uL
  ABSOLUTE MONOCYTE: 166 CELLS/uL
  ABSOLUTE SEGMENTED NEUTROPHIL: 1292.17 CELLS/uL
  BASOPHIL: 0%
  EOSINOPHIL: 0.17%
  ERYTHROCYTE COUNT: 5.46 x10E6/uL
  HEMATOCRIT: 34.38%
  HEMOGLOBIN: 13.32 G/DL
  LEUKOCYTE COUNT: 13.85 x10E3/uL
  LYMPHOCYTE: 88.5%
  MEAN CORPUSCULAR HEMOGLOBIN: 24.42 pg
  MEAN CORPUSCULAR HEMOGLOBIN CONCENTRATION: 38.7 G/DL
  MEAN CORPUSCULAR VOLUME: 63.07 fL
  MONOCYTE: 1.17%
  NEUTROPHIL: 10.17%
  NUCLEATED RED BLOOD CELLS: 0.17 /100WBC
  PLATELET COUNT: 1193.5 x10E3/uL
  ALANINE AMINOTRANSFERASE: 54.5 u/L
  ALBUMIN: 4.02 G/DL
  ALKALINE PHOSPHATASE: 346.5 u/L
  ASPARTATE AMINOTRANSFERASE: 103.17 u/L
  BLOOD UREA NITROGEN: 16.5 mg/dL
  CARBON DIOXIDE: 29.83 mmol/L
  CHLORIDE: 99.5 MEQ/L
  CHOLESTEROL: 72.5 mg/dL
  CREATINE PHOSPHOKINASE: 532.5 u/L
  CREATININE: 0.18 mg/dL
  GLUCOSE: 168.5 mg/dL
  LACTATE DEHYDROGENASE: 536.5 u/L
  LIPASE: 11.17 u/L
  PHOSPHORUS: 11.48 mg/dL
  POTASSIUM: 5.95 MEQ/L
  SODIUM: 140.5 MEQ/L
  TOTAL BILIRUBIN: 0.18 mg/dL
  TOTAL PROTEIN: 5.77 G/DL
  URIC ACID: 1.42 mg/dL
[2]
  ABSOLUTE BASOPHIL: 0 CELLS/uL
  ABSOLUTE EOSINOPHIL: 22.83 CELLS/uL
  ABSOLUTE LYMPHOCYTE: 12202.83 CELLS/uL
  ABSOLUTE MONOCYTE: 158 CELLS/uL
  ABSOLUTE SEGMENTED NEUTROPHIL: 1283 CELLS/uL
  BASOPHIL: 0%
  EOSINOPHIL: 0.17%
  ERYTHROCYTE COUNT: 5.88 x10E6/uL
  HEMATOCRIT: 36.62%
  HEMOGLOBIN: 14.07 G/DL
  LEUKOCYTE COUNT: 13.67 x10E3/uL
  LYMPHOCYTE: 89.5%
  MEAN CORPUSCULAR HEMOGLOBIN: 23.95 pg
  MEAN CORPUSCULAR HEMOGLOBIN CONCENTRATION: 38.43 G/DL
  MEAN CORPUSCULAR VOLUME: 62.28 fL
  MONOCYTE: 1.17%
  NEUTROPHIL: 9.17%
  NUCLEATED RED BLOOD CELLS: 0.17 /100WBC
  PLATELET COUNT: 1198 x10E3/uL
  ALANINE AMINOTRANSFERASE: 51 u/L
  ALBUMIN: 4.3 G/DL
  ALKALINE PHOSPHATASE: 343 u/L
  ASPARTATE AMINOTRANSFERASE: 89.83 u/L
  BLOOD UREA NITROGEN: 17.67 mg/dL
  CARBON DIOXIDE: 27.17 mmol/L
  CHLORIDE: 98.33 MEQ/L
  CHOLESTEROL: 82.5 mg/dL
  CREATINE PHOSPHOKINASE: 533.33 u/L
  CREATININE: 0.18 mg/dL
  GLUCOSE: 152.67 mg/dL
  LACTATE DEHYDROGENASE: 220.33 u/L
  LIPASE: 11.5 u/L
  PHOSPHORUS: 11.25 mg/dL
  POTASSIUM: 6.29 MEQ/L
  SODIUM: 140.53 MEQ/L
  TOTAL BILIRUBIN: 0.22 mg/dL
  TOTAL PROTEIN: 6.12 G/DL
  URIC ACID: 1.42 mg/dL
[3]
  ABSOLUTE BASOPHIL: 0 CELLS/uL
  ABSOLUTE EOSINOPHIL: 0 CELLS/uL
  ABSOLUTE LYMPHOCYTE: 9283.33 CELLS/uL
  ABSOLUTE MONOCYTE: 29.33 CELLS/uL
  ABSOLUTE SEGMENTED NEUTROPHIL: 1254 CELLS/uL
  BASOPHIL: 0%
  EOSINOPHIL: 0%
  ERYTHROCYTE COUNT: 5.36 x10E6/uL
  HEMATOCRIT: 32.73%
  HEMOGLOBIN: 13 G/DL
  LEUKOCYTE COUNT: 10.57 x10E3/uL
  LYMPHOCYTE: 87.67%
  MEAN CORPUSCULAR HEMOGLOBIN: 24.3 pg
  MEAN CORPUSCULAR HEMOGLOBIN CONCENTRATION: 39.73 G/DL
  MEAN CORPUSCULAR VOLUME: 61.17 fL
  MONOCYTE: 0.33%
  NEUTROPHIL: 12%
  NUCLEATED RED BLOOD CELLS: 0 /100WBC
  PLATELET COUNT: 1056.33 x10E3/uL
  ALANINE AMINOTRANSFERASE: 64.33 u/L
  ALBUMIN: 3.87 G/DL
  ALKALINE PHOSPHATASE: 326.33 u/L
  ASPARTATE AMINOTRANSFERASE: 98.67 u/L
  BLOOD UREA NITROGEN: 14.33 mg/dL
  CARBON DIOXIDE: 30 mmol/L
  CHLORIDE: 99 MEQ/L
  CHOLESTEROL: 78.33 mg/dL
  CREATINE PHOSPHOKINASE: 446 u/L
  CREATININE: 0.19 mg/dL
  GLUCOSE: 155 mg/dL
  LACTATE DEHYDROGENASE: 214 u/L
  LIPASE: 10.67 u/L
  PHOSPHORUS: 11.53 mg/dL
  POTASSIUM: 5.92 MEQ/L
  SODIUM: 142 MEQ/L
  TOTAL BILIRUBIN: 0.17 mg/dL
  TOTAL PROTEIN: 5.57 G/DL
